Values joined by “and” are separate entries in the source; they are usually repeats but may differ in a detail not shown here. Equal values may be shown once.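 Step 1: Grow cells in 96-well plates. Step 2: Expose to compound for 48 hours at 5 concentrations. Step 3: Interpolate endpoints linearly; if unreached, use highest concentration. GI50 marks 50% less growth. The concentration for full growth arrest is given as TGI.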 Where a SMILES comes first, the peptide text is derived from it. The star is where a group is joined. Trt = c1ccc(C(c2ccccc2)(c2ccccc2)*)cc1; Cbz = O=C(OCc1ccccc1)*
Key:
Assay in all cases: NCI-60 cell line screen, 48 h
NCI/ADR-RES ovarian = system: NCI/ADR-RES ovarian
EKVX NSCLC = system: EKVX NSCLC
K-562 leukemia = system: K-562 leukemia
MDA-MB-231 breast = system: MDA-MB-231 breast
PC-3 prostate = system: PC-3 prostate
RPMI-8226 leukemia = system: RPMI-8226 leukemia
T-47D breast = system: T-47D breast
CCRF-CEM leukemia = system: CCRF-CEM leukemia
SNB-75 CNS = system: SNB-75 CNS
MALME-3M melanoma = system: MALME-3M melanoma

SMILES	GI50 (NCI/ADR-RES ovarian)	TGI (NCI/ADR-RES ovarian)	GI50 (EKVX NSCLC)	TGI (EKVX NSCLC)	GI50 (K-562 leukemia)	TGI (K-562 leukemia)	GI50 (MDA-MB-231 breast)	TGI (MDA-MB-231 breast)	GI50 (PC-3 prostate)	TGI (PC-3 prostate)	GI50 (RPMI-8226 leukemia)	TGI (RPMI-8226 leukemia)	GI50 (T-47D breast)	TGI (T-47D breast)	GI50 (CCRF-CEM leukemia)	TGI (CCRF-CEM leukemia)	GI50 (SNB-75 CNS)	TGI (SNB-75 CNS)	GI50 (MALME-3M melanoma)	TGI (MALME-3M melanoma)
CCOCC1(COCC)CCC(c2[nH]ncc2CN(C)CCNC)CC1	> 100 µM	> 100 µM	> 100 µM	> 100 µM	28.8 µM	> 100 µM	> 100 µM	> 100 µM	59.4 µM	> 100 µM	19.8 µM	> 100 µM	> 100 µM	> 100 µM	> 100 µM	> 100 µM	41.4 µM	> 100 µM	> 100 µM	> 100 µM
CN=C(N)c1ccc(N=C(N)c2ccc(-c3ccc(C(N)=Nc4ccc(C(N)=NC)cc4)cc3)cc2)cc1	> 100 µM	> 100 µM	> 100 µM	> 100 µM	89.5 µM	> 100 µM	> 100 µM	> 100 µM	> 100 µM	> 100 µM	46.5 µM	> 100 µM	58.2 µM	> 100 µM	> 100 µM	> 100 µM	> 100 µM	> 100 µM	25.5 µM	78.7 µM
CC(C)=CCc1cc2c(cc1O)C1=C(C(=O)C3=C(C1=O)S(=O)(=O)CCN3)C(C=C(C)C)O2 (centres undefined)	6.66 µM	16.7 µM	1.55 µM	6.93 µM	2.24 µM	14.6 µM	0.374 µM	1.61 µM	1.6 µM	12.8 µM	3.38 µM	10.1 µM	0.714 µM	7.15 µM	0.696 µM	8.98 µM	1.39 µM	3.72 µM	0.122 µM	0.397 µM
CN1CCN(CC(=O)N(C)c2ccc(N=C(c3ccccc3)c3c(O)[nH]c4ccc(C#N)cc34)cc2)CC1	17.9 µM	60.1 µM	5.27 µM	19.7 µM	0.575 µM	11.6 µM	2.66 µM	6.32 µM	2.37 µM	17 µM	2.65 µM	6.52 µM	14.2 µM	41.1 µM	1.2 µM	12.5 µM	–	5.49 µM	1.77 µM	3.39 µM
C=C1C[C@H]2C=Nc3cc(OCCCOc4cc5c(cc4OC)C(=O)N4CC(=C)C[C@H]4C=N5)c(OC)cc3C(=O)N2C1	0.317 µM and 0.0972 µM	2.84 µM	0.0665 µM and 0.0182 µM	–	–	3.44 µM	0.0185 µM	0.0452 µM	0.0212 µM and < 0.0138 µM	3.13 µM	0.000136 µM	0.00904 µM and 0.0252 µM	0.0244 µM	3.53 µM	0.00019 µM	0.0144 µM	0.00178 µM	0.0145 µM and < 0.0155 µM	0.0122 µM	0.0292 µM and < 0.0144 µM
COC(=O)C(CO)NC(=O)C(CSC(c1ccccc1)(c1ccccc1)c1ccccc1)NC(=O)OCc1ccccc1 (centres undefined) (Cbz-Cys(Trt)-Ser-OMe; configuration not given here)	–	49.5 µM	–	41.1 µM	–	> 49 µM	–	27.8 µM	–	27.4 µM	–	5.55 µM	–	> 52 µM	–	7.63 µM	–	33.7 µM	–	28.5 µM
O=C1NC(=NCCc2ccc(F)cc2)S/C1=C\c1ccc2ncccc2c1	> 25 µM	> 25 µM	–	–	> 25 µM	> 25 µM	> 25 µM	> 25 µM	> 25 µM	> 25 µM	> 25 µM	> 25 µM	> 25 µM	> 25 µM	> 25 µM	> 25 µM	> 25 µM	> 25 µM	> 25 µM	> 25 µM
c1cc(N[C@@H]2CCNC2)nc(-c2cnc3ccc(-c4cn[nH]c4)cn23)c1	> 100 µM	> 100 µM	–	–	3.63 µM	> 55.6 µM	3.56 µM	36.1 µM	4.99 µM	47.8 µM	11 µM	43.9 µM	2.04 µM	9.3 µM	3.26 µM	14.4 µM	1.88 µM	5.77 µM	6.98 µM	26.9 µM
COc1ccc(C(O)c2cc3c(N)c(C(=O)Nc4ccc(Cl)cc4)sc3nc2C)cc1 (centres undefined)	3.86 µM	28 µM	3.88 µM	30.7 µM	0.694 µM	> 100 µM	4.9 µM	28.8 µM	3.27 µM	22.2 µM	2.22 µM	9.32 µM	3.29 µM	50.5 µM	2.47 µM	> 100 µM	1.88 µM	7.25 µM	2.04 µM	18.9 µM
Cc1ccc(CNc2ccc(Br)cc2)cc1	–	> 100 µM	–	> 100 µM	–	> 100 µM	–	> 100 µM	–	> 100 µM	–	17.5 µM	–	> 100 µM	–	78.4 µM	–	> 100 µM	–	64 µM
CCN1CCN(c2nc(C)cc(N(CCCNc3ccnc4cc(Cl)ccc34)Cc3ccc4c(c3)OCO4)n2)CC1	2.63 µM	10.1 µM	2.6 µM	10.9 µM	0.361 µM	1.51 µM	1.2 µM	2.9 µM	2.43 µM	11 µM	0.794 µM	3.02 µM	2.04 µM	4.53 µM	1.81 µM	7.14 µM	1.48 µM	3.1 µM	1.77 µM	3.34 µM
CC1CC2C3CCC4=CC(=O)C=CC4(C)C3(F)C(O)CC2(C)C1(O)C(=O)COP(=O)(O)O (centres undefined)	> 500 µM	> 500 µM	> 500 µM	> 500 µM	> 500 µM	> 500 µM	> 500 µM	> 500 µM	> 500 µM	> 500 µM	16.6 µM	> 500 µM	> 500 µM	> 500 µM	> 500 µM	> 500 µM	> 500 µM	> 500 µM	> 500 µM	> 500 µM
COC(=O)NC1C(C)OC(OC2C/C=C(/C)C3C=CC4C(OC5CC(OC6CCC(OC7CC(O)C(OC8CCC(O)C(C)O8)C(C)O7)C(C)O6)C(OC(C)=O)C(C)O5)C(C)CC(C)C4C3(C)/C(O)=C3/C(=O)OC4(CC(C=O)=CC(O)C4/C=C\2C)C3=O)CC1(C)[N+](=O)[O-] (centres undefined)	–	26.3 µM	0.367 µM	5.49 µM and 0.864 µM	0.218 µM	11 µM and 12.1 µM	–	3.49 µM	–	7.29 µM	0.225 µM	5.99 µM and 0.705 µM	–	10.2 µM	0.0687 µM	4.86 µM and 1.78 µM	1.06 µM	5.14 µM and 3.27 µM	0.12 µM	1.62 µM and 0.292 µM
